Experimental findings from PubChem BioAssay (NCI) are described below.

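Tested at 5 concentrations; 48 h exposure; 96-well plates; endpoints linearly interpolated, else capped at highest concentration. Definition used: TGI = concentration required for complete inhibition of growth.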

Common to all, as to experiment: DTP human tumour cell line panel, 48 h
Assay [1] relates to SK-MEL-28 melanoma.
Assay [2] concerns K-562 leukemia.
In assay [3] the test system is SK-OV-3 ovarian.
For assay [4], the system named is HOP-62 NSCLC.
Assay [5] relates to MDA-MB-231 breast.
Assay [6] has as its system SF-295 CNS.
The test system of assay [7] is ACHN renal.
Assay [8] concerns UO-31 renal.
Assay [9] concerns CCRF-CEM leukemia.
Assay [10] deals with IGROV1 ovarian.
The test system of assay [11] is HOP-92 NSCLC.
Assay [12] has as its system HCC-2998 colon.
Assay [13] deals with M14 melanoma.
Assay [14] has as its system EKVX NSCLC.
For assay [15], the system named is 786-0 renal.
In assay [16] the test system is HL-60(TB) leukemia.
In assay [17] the test system is NCI-H23 lung.
Assay [18] deals with U251 CNS.
The test system of assay [19] is MDA-N.
The subject of assay [20] is A498 renal.

In general, TGI refers to the concentration giving total growth inhibition. As to `COc1ccc(NCC(=O)Nn2c(C)nc3ccc(S(=O)(=O)Nc4ccc(OC)cc4)cc3c2=O)cc1`, the TGI in [1], in assay [2], in assay [3], in assay [4], in assay [5] and in [6] was over 100 µM each time. Besides, the TGI in [7], in assay [8], in [9], in assay [10], in assay [11] and in assay [12] was over 100 µM in each case. Besides, the TGI in [13], in [14], in assay [15], in assay [16], in assay [17] and in assay [18] was over 100 µM throughout. Further, in [19], the TGI was over 100 µM.

Regarding `NCCCc1ccc2oc3ccccc3c2c1`, the TGI in [1] is 32.9 µM; in assay [2] it was 69.4 µM; in assay [3], 31.3 µM; in [4], 32 µM; in assay [5] it was 33 µM; in [6] it was 33.2 µM. The TGI turned out to be 32.1 µM in assay [7]; 29.6 µM in assay [8]; 32.6 µM in [9]; 43.7 µM in assay [10]; 43 µM in assay [11]; 22.5 µM in assay [12]. For the same molecule, the TGI in assay [13] worked out at 30.1 µM; in [20] it was 30.2 µM; in assay [15], 28.3 µM; in assay [16] it was 31.2 µM; in assay [17] it was 41.8 µM; in [18], 33.4 µM. In [19], this molecule came in with a TGI of 29.6 µM.

On to `Nc1ccc(S(=O)(=O)c2ccc(NC(=O)c3cccnc3)cc2)cc1`, for which the TGI in assay [1], in [2], in [3], in assay [4], in [5] and in [6] was over 100 µM throughout. Also, the TGI in assay [7], in [8], in assay [10], in assay [11], in [12] and in assay [13] was over 100 µM in each case. For the same molecule, the TGI in assay [14], in assay [20], in assay [15], in [16], in assay [17] and in assay [18] was over 100 µM each time. Moreover, the concentration for total growth inhibition (TGI) in assay [19] was over 100 µM.

`O=C1C(N=Nc2ccc(-c3nc4ccccc4o3)cc2)NC(=S)N1c1ccccc1` (stereo unspecified): the TGI in [1], in assay [2], in [3], in [4], in assay [5] and in [6] was over 100 µM throughout. Further, the TGI in assay [7] was over 100 µM; in [8] it was over 100 µM; in assay [9], 0.679 µM; in assay [10], over 100 µM; in assay [11], over 100 µM; in [12], over 100 µM. In addition, the TGI in assay [13] was over 100 µM; in assay [14], over 100 µM; in assay [15] it was over 100 µM; in assay [16], 0.742 µM; in [17] it was over 100 µM; in [18] it was over 100 µM. In addition, the TGI in assay [19] was over 100 µM.

For `CC1CC/C(=C\c2ccc(N(C)C)cc2)C(=O)/C1=C/c1ccc(N(C)C)cc1` (stereo unspecified), the TGI in assay [1], in assay [2], in assay [3], in assay [4], in [5] and in [6] was over 100 µM each time. Further, the TGI in assay [7], in [8], in assay [9], in assay [10], in assay [12] and in assay [13] was over 100 µM each time. Besides, the TGI in assay [14], in assay [20], in [15], in assay [17], in assay [18] and in assay [19] was over 100 µM in each case.

Take `CN(C)C(=C1c2cc([N+](=O)[O-])ccc2-c2ccc([N+](=O)[O-])cc21)N(C)C`: the TGI in assay [1], in assay [2], in assay [3], in assay [4], in [5] and in assay [6] was over 100 µM each time. In addition, the TGI in [7], in assay [8], in assay [9], in [10], in assay [12] and in assay [13] was over 100 µM throughout. The TGI in [14], in assay [20], in assay [15], in [17], in assay [18] and in assay [19] was over 100 µM in each case.

As to `Cc1cc(NS(=O)(=O)c2ccc(Nc3c4ccccc4nc4ccc(C(=O)Nc5ccc(S(=O)(=O)N=C(N)N)cc5)cc34)cc2)no1`, the TGI in assay [1], in assay [2], in [3], in assay [4], in [5] and in assay [6] was over 100 µM in each case. Further, the total growth inhibition concentration (TGI) in assay [7], in assay [8], in assay [9], in assay [10], in assay [11] and in [12] was over 100 µM in each case. Further, the TGI in assay [13], in assay [14], in [15], in [16], in assay [17] and in assay [18] was over 100 µM throughout. For the same molecule, the TGI in assay [19] was over 100 µM.
